# Like-named read-outs stand apart in the source and are kept apart here.
# Assays:
# Type in all cases: cell-based
# [1] = system: human cervical epithelioid carcinoma (HeLa); experiment: In vitro anticancer assay (MTT), HeLa; details: HeLa cells, 48 hrs, mean ± spread, read-out: Anti-proliferative evaluation IC50, HeLa
# Protocol: (§1) The resultant tetrazolium salt was then dissolved by the addition of dimethyl sulfoxide. Color was measured spectrophotometrically in a microtiter plate reader at 570 nm and used as a relative measure of viable cell number. The number of viable cells after treatment was compared to solvent and untreated control cells and used to determine the percent of control growth as (Abtreated/Abcontrol)×100, where Ab represents the mean absorbance (n=3). […] D. Heo et al. […] (+)-camptothecin (CPT) and doxorubicin hydrochloride (Dox) were used for comparison with the compounds according to this invention.
# [2] = system: hepatocellular carcinoma (SKHep1); experiment: In vitro anticancer assay (MTT), SKHep1; details: 48 hrs, mean ± spread, read-out: Anti-proliferative evaluation IC50, SKHep1
# Protocol: as §1
# [3] = system: esophageal carcinoma (CE81T); experiment: In vitro anticancer assay (MTT), CE81T; details: CE81T cells, 48 hrs, mean ± spread, read-out: Anti-proliferative evaluation IC50, CE81T
# Protocol: as §1
# [4] = system: oral squamous cell carcinoma (SAS); experiment: In vitro anticancer assay (MTT), SAS; details: SAS cells, 48 hrs, mean ± spread, read-out: Anti-proliferative evaluation IC50, SAS
# Protocol: as §1
# [5] = system: human stomach adenocarcinoma (AGS); experiment: In vitro anticancer assay (MTT), AGS; details: AGS cells, 48 hrs, mean ± spread, read-out: Anti-proliferative evaluation IC50, AGS
# Protocol: as §1
# [6] = system: human renal clear cell carcinoma; experiment: In vitro anticancer assay (MTT), RCC 768-O; details: RCC 768-O cells, 48 hrs, mean ± spread, read-out: Anti-proliferative evaluation IC50, RCC 768-O
# Protocol: as §1
# [7] = Homo sapiens, SK-HEP1, SKHep1 cells
IC50 ([1]; Homo sapiens) [µM],"IC50 [2, 7] [µM]",IC50 [3] [µM],IC50 [4] [µM],IC50 ([5]; Homo sapiens) [µM],IC50 ([6]; Homo sapiens) [µM],IC50 [1] [µM],IC50 ([2]; SKHep1 cells) [µM],IC50 [5] [µM],IC50 [6] [µM],SMILES
,,11.1 ± 8.5,10.7 ± 0.9,,,1.1 ± 0.6,1.7 ± 1.1,6.5 ± 2.6,7.7 ± 0.4,O=C1c2ccccc2-c2c(N3CCNCC3)nc3ccccc3c21 [Compound 5aa]
,,7.1 ± 0.9,9.1 ± 1.6,,,3.1 ± 1.2,4.5 ± 1.1,3.7 ± 0.5,2 ± 1.4,COc1ccc2c(c1)C(=O)c1c-2c(N2CCN(C(=O)CCNCCO)CC2)nc2ccccc12 [Compound 5aaa]
,,> 30,6.9 ± 0.5,,,4 ± 0.9,4.6 ± 1.5,9.8 ± 4,10 ± 0.8,CN(C)CCCNc1nc2ccccc2c2c1-c1ccccc1C2=O [Compound 5b]
4.8 ± 1.5,5.1 ± 1.5,7.4 ± 2,8.8 ± 1,4.9 ± 1,7 ± 1.3,,,,,"COc1ccc2c(c1)C(=O)c1c-2c(N2CCN(C(=O)CCNCCN(C)C)CC2)nc2ccccc12 [Compound 5bbb, 6-{4-{3-[2-(Dimethylamino)ethylamino]propanoyl}piperazin-1-yl}-9-methoxy-11H-indeno[1,2-c]quinolin-11-one]"
1 ± 0.3,4.3 ± 1.5,> 30,7.3 ± 0.6,7.9 ± 1.7,8.3 ± 0.6,,,,,"O=C1c2ccccc2-c2c(NCCNCCO)nc3ccccc3c21 [Compound 5c, 6-[2-(2-Hydroxyethylamino)ethylamino]-11H-indeno[1,2-c]quinolin-11-one]"
,,9.4 ± 0.6,13.5 ± 2.2,,,5.4 ± 1.3,8.6 ± 0.7,2.8 ± 1.3,5.9 ± 0.9,COc1ccc2c(c1)C(=O)c1c-2c(N2CCN(C(=O)CCNCCCN(C)C)CC2)nc2ccccc12 [Compound 5ccc]
7 ± 1.2,6.6 ± 3.2,8.3 ± 0.3,11.7 ± 1.6,7.4 ± 2.1,7.1 ± 0.6,,,,,"COc1cc2c(cc1OC)-c1c(N3CCNCC3)nc3ccccc3c1C2=O [Compound 5dd, 8,9-Dimethoxy-6-(piperazin-1-yl)-11H-indeno[1,2-c]quinolin-11-one]"
,,> 30,> 30,,,> 30,> 30,10.8 ± 0.2,> 30,COc1ccc2c(c1)C(=O)c1c-2c(N2CCN(C(=O)CCNCCNCCN)CC2)nc2ccccc12 [Compound 5ddd]
> 30,16.5 ± 5.1,0.9 ± 0.6,6.9 ± 0.5,6.5 ± 0.9,4.7 ± 3,,,,,"COc1ccc2c(c1)C(=O)c1c-2c(N2CCNCC2)nc2ccc(F)cc12 [Compound 5ee, 2-Fluoro-9-methoxy-6-(piperazin-1-yl)-11H-indeno[1,2-c]quinolin-11-one]"
,,> 30,> 30,,,10.6 ± 1.2,11.2 ± 0.9,16 ± 0.9,15 ± 3.5,COc1ccc2c(c1)C(=O)c1c-2c(N2CCN(C(=O)CCNCCNCCO)CC2)nc2ccccc12 [Compound 5eee]
4.6 ± 0.7,4.7 ± 2.2,> 30,11 ± 3.2,9.5 ± 2.7,6.9 ± 0.3,,,,,"COc1ccc2c(c1OC)C(=O)c1c-2c(N2CCNCC2)nc2ccc(Cl)cc12 [Compound 5ff, 2-Chloro-9,10-dimethoxy-6-(piperazin-1-yl)-11H-indeno[1,2-c]quinolin-11-one]"
,,> 30,> 30,,,> 30,23.5 ± 1.4,10.8 ± 1.9,> 30,COc1ccc2c(c1)C(=O)c1c-2c(N2CCN(C(=O)CCNCCCN(C)CCCN)CC2)nc2ccccc12 [Compound 5fff]
,,7.2 ± 1.5,7.7 ± 0.9,,,4.7 ± 1.4,4.9 ± 1.1,5.5 ± 0.5,1.5 ± 1.3,COc1ccc2c(c1)C(=O)c1c-2c(N2CCN(C(=O)CCN3CCNCC3)CC2)nc2ccccc12 [Compound 5ggg]
,,> 30,> 30,,,14.3 ± 4.4,15 ± 5.9,12 ± 1.3,> 30,COc1ccc2c(c1)C(=O)c1c-2c(N2CCN(C(=O)CCN3CCOCC3)CC2)nc2ccccc12 [Compound 5hhh]
2 ± 0.4,11.5 ± 5.4,7.1 ± 0.3,5.5 ± 0.5,14.3 ± 0.5,> 30,,,,,"COc1ccc2c(c1)C(=O)c1c-2c(NCCCN(C)C)nc2ccccc12 [Compound 5i, 6-[3-(Dimethylamino)propylamino]-9-methoxy-11H-indeno[1,2-c]quinolin-11-one]"
,,> 30,> 30,,,> 30,11.5 ± 5.6,13.4 ± 1.3,> 30,COc1ccc2c(c1)C(=O)c1c-2c(N2CCN(C(=O)CCNCCN3CCNCC3)CC2)nc2ccccc12 [Compound 5iii]
,,> 30,8 ± 0.8,,,4.9 ± 1.7,5.5 ± 0.8,5.4 ± 0.6,5.3 ± 0.5,COc1ccc2c(c1)C(=O)c1c-2c(N2CCN(C(=O)CCCN(C)C)CC2)nc2ccccc12 [Compound 5jjj]
,,2.3 ± 1.3,7.4 ± 0.9,,,2 ± 0.6,4.8 ± 2.1,7.2 ± 1.5,6.2 ± 1.9,CNCC(=O)N1CCN(c2nc3ccccc3c3c2-c2ccc(OC)cc2C3=O)CC1 [Compound 5kk]
10.7 ± 1.2,> 30,0.6,> 30,21.4 ± 10.1,19.1 ± 3.1,,,,,"COc1ccc2c(c1)C(=O)c1c-2c(N2CCN(CC3CO3)CC2)nc2ccccc12 (stereo not shown) [Compound 5kkk, 9-methoxy-6-[4-(oxiran-2-ylmethyl)piperazin-1-yl]-11H-indeno[1,2-c]quinolin-11-one]"
,,> 30,> 30,,,11.8 ± 2.8,19.2 ± 5.4,8.7 ± 1.2,14.1 ± 3.4,COc1ccc2c(c1)C(=O)c1c-2c(N2CCN(C(=O)CN(C)C)CC2)nc2ccccc12 [Compound 5ll]
4.6 ± 1,3.4 ± 1.2,0.9 ± 0.3,7.4 ± 0.7,9.6 ± 3.8,6.4 ± 0.2,,,,,"CNCC(O)CN1CCN(c2nc3ccccc3c3c2-c2ccc(OC)cc2C3=O)CC1 (stereo not shown) [Compound 5lll, 6-{4-[2-Hydroxy-3-(methylamino)propyl]piperazin-1-yl}-9-methoxy-11H-indeno[1,2-c]quinolin-11-one]"
,,> 30,> 30,,,8.7 ± 1.8,14.9 ± 3.6,11.2 ± 1.5,10.5 ± 1,COc1ccc2c(c1)C(=O)c1c-2c(N2CCN(C(=O)CNCCN)CC2)nc2ccccc12 [Compound 5mm]
,,4.8 ± 4,6.9 ± 0.5,,,2.5 ± 0.7,2.2 ± 0.8,7.9 ± 3.8,6.8 ± 0.1,COc1ccc2c(c1)C(=O)c1c-2c(N2CCN(CC(O)CN(C)C)CC2)nc2ccccc12 (stereo not shown) [Compound 5mmm]
,,9.2 ± 0.8,11.3 ± 0.3,,,4.7 ± 2.3,6.6 ± 0.9,6.5 ± 0.6,6.7 ± 0.5,COc1ccc2c(c1)C(=O)c1c-2c(N2CCN(C(=O)CNCCO)CC2)nc2ccccc12 [Compound 5nn]
,,> 30,19.5 ± 3.2,,,8.2 ± 2.2,16 ± 3.8,14.1 ± 2.3,9.4 ± 0.6,COc1ccc2c(c1)C(=O)c1c-2c(N2CCN(C(=O)CNCCN(C)C)CC2)nc2ccccc12 [Compound 5oo]
,,> 30,> 30,,,10.8 ± 3,13.1 ± 2.7,5.6 ± 2.2,10 ± 2.1,COc1ccc2c(c1)C(=O)c1c-2c(N2CCN(C(=O)CNCCCN(C)C)CC2)nc2ccccc12 [Compound 5pp]
,,22.7 ± 1.5,> 30,,,> 30,> 30,> 30,> 30,COc1ccc(Nc2nc3ccccc3c3c2-c2ccc(OC)cc2C3=O)c(OC)c1 [Compound 5q]
0.4 ± 0.02,1.5 ± 0.3,,1.2 ± 0.2,> 30,5.7 ± 1,,,,,"COc1ccc2c(c1)C(=NOCCN1CCCC1)c1c-2cnc2ccccc12 [Compound 6aa, 9-methoxy-11H-indeno[1,2-c]quinolin-11-one O-2-(pyrrolidin-1-yl)ethyl oxime]"
0.2 ± 0.02,1.2 ± 0.3,,0.8 ± 0.1,10.4 ± 3,3.7 ± 0.8,,,,,"COc1ccc2c(c1)C(=NOCCN1CCCC1)c1c-2c(O)nc2ccccc12 [Compound 6bb, 6-hydroxy-9-methoxy-11H-indeno[1,2-c]quinolin-11-one O-2-(pyrrolidin-1-yl)ethyl oxime]"

SMILES,IC50 ([1]; Homo sapiens) [µM],"IC50 [2, 7] [µM]",IC50 [3] [µM],IC50 [4] [µM],IC50 ([5]; Homo sapiens) [µM],IC50 ([6]; Homo sapiens) [µM],IC50 [1] [µM],IC50 ([2]; SKHep1 cells) [µM],IC50 [5] [µM],IC50 [6] [µM]
"CC[C@@]1(O)C(=O)OCc2c1cc1n(c2=O)Cc2cc3ccccc3nc2-1 [CPT, (+)-camptothecin, reference compound]",0.3 ± 0.1,0.2 ± 0.1,2.8 ± 1.5,6 ± 2.7,> 30,2.8 ± 0.7,,,,

# Source: patent publication US7829567B2, “Imino-indeno[1,2-c] quinoline derivatives, their preparation processes, and pharmaceutical compositions comprising the same” (Kaohsiung Medical University, priority 2007, dated 2010)
